The values below come from BindingDB's records for doi:10.1021/ml500507v (University of Cambridge, 2015).

The structures appear in SMILES notation.

The target of experiment [1] is T1, 5-hydroxytryptamine receptor 2C (Homo sapiens, UniProt P28335).
T1 sequence (P28335 whole entry): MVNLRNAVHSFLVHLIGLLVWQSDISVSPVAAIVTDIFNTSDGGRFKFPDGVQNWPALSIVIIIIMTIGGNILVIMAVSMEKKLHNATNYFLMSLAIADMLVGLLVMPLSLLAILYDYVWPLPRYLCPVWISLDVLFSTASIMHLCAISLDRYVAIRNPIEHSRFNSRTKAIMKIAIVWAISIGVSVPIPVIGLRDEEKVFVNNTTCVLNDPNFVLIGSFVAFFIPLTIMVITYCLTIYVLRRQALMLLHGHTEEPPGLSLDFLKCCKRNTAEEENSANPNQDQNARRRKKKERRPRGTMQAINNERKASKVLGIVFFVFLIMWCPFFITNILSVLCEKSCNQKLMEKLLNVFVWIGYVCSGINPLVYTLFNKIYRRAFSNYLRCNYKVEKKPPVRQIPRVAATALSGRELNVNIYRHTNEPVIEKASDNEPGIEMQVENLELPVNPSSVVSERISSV
The experiment can be described thus: Inhibition of Cy3B conjugated serotonin analogue binding to human recombinant 5-HT2C receptor expressed in Swiss mouse 3T3 cell membranes after 60 mins by fluorescence polarization assay. (In general: Polarisation of emitted light reports the rotation of a fluorescent probe.)

Experiment [2] deals with T1, 5-hydroxytryptamine receptor 2C. As to the kind of experiment: Agonist activity at human recombinant 5-HT2C receptor expressed in Swiss mouse 3T3 cell membranes after 30 to 40 mins by GTPgammaS recruitment assay.

With `CN(C)c1nc(Cc2ccccc2)cc2c1CCNCC2`, in experiment [1], the Ki came out at 12 nM. Turning to `c1ccc(Cc2cc3c(c(NCC4CC4)n2)CCNCC3)cc1`, the Ki in experiment [1] was 0.5 nM. Same read-out and setting: to `CCCNc1nc(Cc2ccccc2)cc2c1CCNCC2` belongs 4 nM; to `CC(C)Nc1nc(Cc2ccccc2)cc2c1CCNCC2`, 13 nM. With `CCNc1nc(Cc2ccccc2)cc2c1CCNCC2`, the Ki in experiment [1] was 3 nM. The EC50 in experiment [2] was found to be 11 nM. On the same counts, the results for `CNc1nc(Cc2ccccc2)cc2c1CCNCC2` are 3 nM and 9 nM. Turning to `c1ccc(Cc2cc3c(cn2)CCNCC3)cc1`, the Ki in experiment [1] was 35 nM.

For `CC(C)CNc1nc(Cc2ccccc2)cc2c1CCNCC2`, in experiment [1], the Ki was found to be 12 nM. Further, the EC50 in experiment [2] was found to be 36 nM. In the same order, the values of `c1ccc(CNc2nc(Cc3ccccc3)cc3c2CCNCC3)cc1` are 22 nM and 158 nM.

One may read the Ki as the dissociation constant of the complex between target and ligand, obtained from inhibition or displacement. As usually defined, the EC50 is the concentration needed to bring the measured effect to its halfway point.
